According to patent US6914045B2, “Glycopeptide antibiotics” (Wyeth Holdings Corporation, priority 2001, dated 2005):
Values after ≈ are worked out from the molar mass of the structure shown.

Key:
Test in all cases: in vitro antibacterial evaluation, MIC by broth dilution
Format in all cases: cell-based
[1] = tested on: Staphylococcus sp.; conditions: broth dilution, 18 hours at 35° C.
Protocol: (§1) Methods for in vitro Antibacterial Evaluation (Table 1)
(§2) The minimum inhibitory concentration (MIC), the lowest concentration of the antibiotic which inhibits growth of the test organism, is determined by the broth dilution method using Muller-Hinton II […] (Baltimore Biological Laboratories) following the recommendations of the National Committee for Clinical Laboratory Standards [Methods for dilution antimicrobial susceptibility tests for bacteria that grow aerobically, approved standard M7-A2, National Committee for Clinical Laboratory Standards, Villanova, Pa.].
(§3) An inoculum level of 5×10^5 CFU/mL, and a range of antibiotic concentrations (64-0.06 μg/mL) is used. […] The test organisms include a spectrum of Gram-positive bacteria comprised of Staphylococcus sp., Streptococcus sp. and Enterococcus sp. These organisms include recent clinical isolates that are resistant to methicillin, penicillin and/or vancomycin.

[2] = tested on: Enterococcus sp.; conditions: broth dilution, 18 hours at 35° C.
Protocol: as §1, §2, §3

[3] = tested on: Streptococcus sp.; conditions: broth dilution, 18 hours at 35° C.
Protocol: as §1, §2, §3

[4] = tested on: Escherichia coli; conditions: 18 hours at 35° C.

`CC(c1ccccc1)C1NC(=O)CNC(=O)C(CO)NC(=O)C(C(O)C2CNC(=N)N2C2OC(CO)C(O)C(O)C2O)NC(=O)C(C(O)C2CNC(=N)N2)NC(=O)C(Cc2ccc(OC3OC(CO)C(OC4OC5COC6(CCC(C(C)(C)C)CC6)OC5C(O)C4O)C(O)C3O)cc2)NC1=O` (stereo not shown) [Example 208] was tested, and the “MIC Staphylococcus aureus (ATCC 29213)” value ([1]; strain ATCC 29213) was 4 µg/mL (≈ 2.79 µM), the “MIC Staphylococcus aureus (GC 1131)” value ([1]; strain GC 1131) was 8 µg/mL (≈ 5.59 µM) and the “MIC Staphylococcus aureus (GC 3051)” value ([1]; strain GC 3051) was 4 µg/mL (≈ 2.79 µM). For the same compound, the “MIC Staphylococcus aureus (GC 3053)” value ([1]; strain GC 3053) was 4 µg/mL (≈ 2.79 µM), the “MIC Staphylococcus aureus (GC 4541)” value ([1]; strain GC 4541) was 8 µg/mL (≈ 5.59 µM) and the “MIC Staphylococcus aureus (GC 4542)” value ([1]; strain GC 4542) was 4 µg/mL (≈ 2.79 µM). The “MIC Staphylococcus aureus-SMITH (GC 4543)” value ([1]; strain GC 4543) was 4 µg/mL (≈ 2.79 µM), the “MIC Staphylococcus aureus (GC 4544)” value ([1]; strain GC 4544) was 8 µg/mL (≈ 5.59 µM) and the “MIC Staphylococcus aureus (GC 4545)” value ([1]; strain GC 4545) was 4 µg/mL (≈ 2.79 µM). The “MIC Staphylococcus haemolyticus (GC 4546)” value ([1]; strain GC 4546) was 4 µg/mL (≈ 2.79 µM), the “MIC Coagulase Negative Staphylococcus (GC 4547)” value ([1]; strain GC 4547) was 4 µg/mL (≈ 2.79 µM) and the “MIC Coagulase Negative Staphylococcus (GC 4548)” value ([1]; strain GC 4548) was 4 µg/mL (≈ 2.79 µM). The “MIC Coagulase Negative Staphylococcus (GC 4549)” value ([1]; strain GC 4549) was 4 µg/mL (≈ 2.79 µM), the “MIC Coagulase Negative Staphylococcus (GC 4551)” value ([1]; strain GC 4551) was 4 µg/mL (≈ 2.79 µM) and the “MIC Coagulase Negative Staphylococcus (GC 6257)” value ([1]; strain GC 6257) was 4 µg/mL (≈ 2.79 µM). For the same compound, the “MIC Enterococcus avium (GC 4558)” value [2] was 4 µg/mL (≈ 2.79 µM), the “MIC Enterococcus faecalis (ATCC 29212)” value [2] was 8 µg/mL (≈ 5.59 µM) and the “MIC Enterococcus faecalis (GC 2242)” value [2] was 8 µg/mL (≈ 5.59 µM). For the same compound, the “MIC Enterococcus faecalis (GC 2691)” value [2] was 8 µg/mL (≈ 5.59 µM), the “MIC Enterococcus faecalis (GC 3059)” value [2] was 8 µg/mL (≈ 5.59 µM) and the “MIC Enterococcus faecalis (GC 4552)” value [2] was 8 µg/mL (≈ 5.59 µM). The “MIC Enterococcus faecalis (GC 4553)” value [2] was 8 µg/mL (≈ 5.59 µM), the “MIC Enterococcus faecalis (GC 4554)” value [2] was 8 µg/mL (≈ 5.59 µM) and the “MIC Enterococcus faecalis (GC 6189)” value [2] was 8 µg/mL (≈ 5.59 µM). The “MIC Enterococcus faecium (GC 2243)” value [2] was 8 µg/mL (≈ 5.59 µM), the “MIC Enterococcus faecium (GC 4556)” value [2] was 8 µg/mL (≈ 5.59 µM) and the “MIC Enterococcus faecium (GC 4557)” value [2] was 8 µg/mL (≈ 5.59 µM). For the same compound, the “MIC Enterococcus faecalis (ATCC 29212)” value ([2]; inoculum 5×10^5 CFU/mL, strain ATCC 29212) was 8 µg/mL (≈ 5.59 µM), the “MIC Enterococcus faecalis (GC 2242)” value ([2]; inoculum 5×10^5 CFU/mL, strain GC 2242) was 8 µg/mL (≈ 5.59 µM) and the “MIC Enterococcus faecium (GC 2243)” value ([2]; inoculum 5×10^5 CFU/mL, strain GC 2243) was 8 µg/mL (≈ 5.59 µM). The “MIC Enterococcus faecalis (GC 2691)” value ([2]; inoculum 5×10^5 CFU/mL, strain GC 2691) was 8 µg/mL (≈ 5.59 µM), the “MIC Enterococcus faecalis (GC 3059)” value ([2]; inoculum 5×10^5 CFU/mL, strain GC 3059) was 8 µg/mL (≈ 5.59 µM) and the “MIC Enterococcus faecalis (GC 4552)” value ([2]; inoculum 5×10^5 CFU/mL, strain GC 4552) was 8 µg/mL (≈ 5.59 µM). The “MIC Enterococcus faecalis (GC 4553)” value ([2]; inoculum 5×10^5 CFU/mL, strain GC 4553) was 8 µg/mL (≈ 5.59 µM), the “MIC Enterococcus faecalis (GC 4554)” value ([2]; inoculum 5×10^5 CFU/mL, strain GC 4554) was 8 µg/mL (≈ 5.59 µM) and the “MIC Enterococcus faecium (GC 4556)” value ([2]; inoculum 5×10^5 CFU/mL, strain GC 4556) was 8 µg/mL (≈ 5.59 µM). For the same compound, the “MIC Enterococcus faecium (GC 4557)” value ([2]; inoculum 5×10^5 CFU/mL, strain GC 4557) was 8 µg/mL (≈ 5.59 µM), the “MIC Enterococcus avium (GC 4558)” value ([2]; inoculum 5×10^5 CFU/mL, strain GC 4558) was 4 µg/mL (≈ 2.79 µM) and the “MIC Enterococcus faecalis (GC 6189)” value ([2]; inoculum 5×10^5 CFU/mL, strain GC 6189) was 8 µg/mL (≈ 5.59 µM). For the same compound, the “MIC Streptococcus agalactiae (GC 4564)” value [3] was 0.12 µg/mL (≈ 0.0838 µM), the “MIC Streptococcus pneumoniae (ATCC 6301)” value [3] was less than 0.06 µg/mL and the “MIC Streptococcus pneumoniae (GC 1894)” value [3] was less than 0.06 µg/mL. The “MIC Streptococcus pneumoniae (GC 4565)” value [3] was less than 0.06 µg/mL, the “MIC Streptococcus pyogenes (GC 4563)” value [3] was 0.12 µg/mL (≈ 0.0838 µM) and the “MIC Streptococcus pneumoniae (ATCC 6301)” value ([3]; inoculum 5×10^5 CFU/mL, strain ATCC 6301) was less than 0.06 µg/mL. The “MIC Streptococcus pneumoniae (GC 1894)” value ([3]; inoculum 5×10^5 CFU/mL, strain GC 1894) was less than 0.06 µg/mL, the “MIC Streptococcus pyogenes (GC 4563)” value ([3]; inoculum 5×10^5 CFU/mL, strain GC 4563) was 0.12 µg/mL (≈ 0.0838 µM) and the “MIC Streptococcus agalactiae (GC 4564)” value ([3]; inoculum 5×10^5 CFU/mL, strain GC 4564) was 0.12 µg/mL (≈ 0.0838 µM). For the same compound, the “MIC Streptococcus pneumoniae (GC 4565)” value ([3]; inoculum 5×10^5 CFU/mL, strain GC 4565) was less than 0.06 µg/mL, the “MIC Escherichia coli (ATCC 25922)” value [4] was 64 µg/mL (≈ 44.7 µM) and the “MIC Escherichia coli (GC 4559)” value [4] was greater than 64 µg/mL. The “MIC Escherichia coli (GC 4560)” value [4] was 8 µg/mL (≈ 5.59 µM).
